Experimental data from US20050228050A1, “Novel stable crystals of substituted phenylpropionic acid derivative and process for producing the same” (priority 2001, published 2005).

Tests used:
[1] = Differential thermal analysis (DTA) and thermogravimetry (TG) of crystals; format: physicochemical
Experimental: Differential Thermal Analysis (DTA) and Thermogravimetry (TG)
The thermal stability of crystals was compared by using apparatus for thermal analysis (SII: TG/DTA6200). […] With the new type crystals, the endothermic phenomenon due to transition was seen from 131.4° C. and the endothermic peak due to melting was shown at 132.0° C.

[2] = Hygroscopicity of crystals; format: physicochemical; settings: stated without described test

weight change in thermogravimetry ([1]; TG/DTA6200 thermal analysis, FIG. 3 and 4): no weight change
thermal stability of crystals ([1]; conclusion from DTA/TG comparison of new and old type crystals): thermally stable
hygroscopicity [2]: no hygroscopicity
Structure (SMILES): CC[C@@H](Cc1ccc(OC)c(C(=O)NCc2ccc(Oc3ccc(F)cc3)cc2)c1)C(=O)O [new type crystals, (S)-2-[[3-[N-[4-[(4-fluorophenoxy)phenyl]methyl]-carbamoyl]-4-methoxyphenyl]methyl]butanoic acid]
